Earlier results on two substances are cited in patent US20070244041A1, “Peptide Yy Analogues” (Reoscience A/S, priority 2004, published 2007).

In data set [1] the test system is Y2 over Y1 receptors.
For data set [2], the system named is vagal motor neurons. The following applies: applied onto vagal motor neurons.

No end group written: not given here.

On to “NPY3-36: truncated neuropeptide Y with high selectivity for Y2 over Y1 receptors”, for which the “selectivity for Y2 over Y1 receptors” value in data set [1] is recorded as “high selectivity”.

Take “PYY13-36: truncated PYY, a Y2 selective agonist (SPEELNRYYASLRHYLNLVTRQRY; ends and bridges not checked; UniProt P10082 41-64, looked up, fragment)”: in data set [2], the “vagal motor neurons activated” value is recorded as “approximately 5%” and the “vagal motor neurons with inhibited firing rate” value is reported as “approximately 50%”.
